In US10647671B2, “Promysalin analogues and methods of use thereof” (Temple University—Of The Commonwealth System of Higher …, priority 2016, dated 2020):
Where two headings read alike, the source gives them in different places.

Experiments:
[1] = Kaduskar et al., 2016; cited from earlier work
PaPiuA = assay: Isothermal microcalorimetry titration; assay type: binding, Pseudomonas aeruginosa; details: 25° C.
Method: Titrations were performed using 5 μl injections of 164 μM (using ε280=6 714 1 mol-1 cm-1 Li et al. Chemistry and Biology 2011) of the ligand in 17 μM of purified PaPiuA (Moynie et al. Antimicrobial Agents and Chemotherapy 2017) in the same buffer (50 mM sodium phosphate pH 7.5, 50 mM NaCl, 0.8% OctylPOE). The heats of dilution measured from injection of the ligands into the buffer were subtracted from the experimental data and titration curves were fitted to a single site binding using Origin software.

P. aeruginosa PA14 = assay: IC50 assay (OD595, 24 h) against PA14; assay type: cell-based, Pseudomonas aeruginosa; details: Pseudomonas aeruginosa
Method: (§1) P. aeruginosa PA01, and PA14 were gifts from Prof. George O'Toole (Dartmouth Medical School). Bacterial cultures were grown from freezer stocks overnight (16-24 hr) with shaking at 37° C. in Tryptic Soy Broth (TSB) media (10 mL). Growth curves were obtained for PA01 and PA14 to determine the OD of each strain in exponential growth; OD readings at 595 nm were taken every 10 minutes for 6 hours in a plate reader at 37° C. with shaking and repeated six times. (see FIGS. 6A and 6B)
(§2) Compounds were serially diluted in sterile DI water from a stock solution (1 mM in 10% DMSO/90% H2O) to yield twenty-four test concentrations. Overnight cultures were diluted 1:100 in 5 mL fresh media and grown with shaking at 37° C. to an OD of 0.32 (see growth curves). Bacteria were diluted to a concentration of 0.004 using the following equation: (x μL O/N)(OD reading)=(0.004)(volume needed) and 100 μL was inoculated into each well of a flat-bottom 96-well plate (Corning 3370) containing 100 μL of compound solution. Plates were incubated statically at 37° C. for 24 hours, upon which time the OD at 595 nm was measured using a plate reader. IC50 values were calculated by fitting the OD readings vs. concentration with a 4 parameter logistic model. Controls were prepared by serially diluting a 10% DMSO/90% H2O the same as the compound stock solution. Compounds were tested in triplicate from separate O/N cultures and results averaged.
Compounds were serially diluted in sterile DI water from a stock solution (10% DMSO/H2O) yielding 24 test concentrations. Bacteria were diluted to a final concentration of 0.004 from regrown overnight culture according to the following equation: (xμL bacterial culture)(OD reading)=(0.004)(total volume needed) and 100 μL was inoculated into each well of a flat-bottom 96-well plate (Corning 3370) containing 100 μL of compound solution. Plates were incubated statically at 37° C. for 24 hours upon which time OD at 595 nm was measured using a plate reader (Spectra Max 190). IC50 values were calculated using OD values and concentrations with a 4-parameter logistic model. Control experiments used a 10% DMSO/H2O stock serially diluted to the same 24 concentrations. Compounds were tested in triplicate from three independent overnight cultures.

P. aeruginosa PA01 = assay: IC50 assay (OD595, 24 h) against PA01; assay type: cell-based; details: Pseudomonas aeruginosa
Method: P. aeruginosa PA01, and PA14 were gifts from Prof. George O'Toole (Dartmouth Medical School). Bacterial cultures were grown from freezer stocks overnight (16-24 hr) with shaking at 37° C. in Tryptic Soy Broth (TSB) media (10 mL). Growth curves were obtained for PA01 and PA14 to determine the OD of each strain in exponential growth; OD readings at 595 nm were taken every 10 minutes for 6 hours in a plate reader at 37° C. with shaking and repeated six times. (see FIGS. 6A and 6B) Compounds were serially diluted in sterile DI water from a stock solution (1 mM in 10% DMSO/90% H2O) to yield twenty-four test concentrations. Overnight cultures were diluted 1:100 in 5 mL fresh media and grown with shaking at 37° C. to an OD of 0.32 (see growth curves). Bacteria were diluted to a concentration of 0.004 using the following equation: (x μL O/N)(OD reading)=(0.004)(volume needed) and 100 μL was inoculated into each well of a flat-bottom 96-well plate (Corning 3370) containing 100 μL of compound solution. Plates were incubated statically at 37° C. for 24 hours, upon which time the OD at 595 nm was measured using a plate reader. IC50 values were calculated by fitting the OD readings vs. concentration with a 4 parameter logistic model. Controls were prepared by serially diluting a 10% DMSO/90% H2O the same as the compound stock solution. Compounds were tested in triplicate from separate O/N cultures and results averaged.

[2] = test system: P. aeruginosa strains PAO1 and PA14; details: cited from earlier work
CAS assay (CAS agar) = assay type: physicochemical; details: at concentrations ranging from 6-100 μM; reduced affinity compared to EDTA
Method: CAS agar was prepared as described previously (Cordero, et al., PNAS, 2012, 109, 49, 29059). 10 μL of solution at given concentration were dosed onto plates and imaged after 24 hours. Stock solutions were made in 10% DMSO/H2O.

Gram-positive bacteria = details: Li et al., 2011; cited from earlier work
[3] = test system: P. putida (PP KT2440, PP RW10S); assay: Zone of inhibition / growth in defined media; assay type: cell-based, Pseudomonas putida
Method: (§3) Bacterial strains (PA14, PAO1, KT2440, and RW10S1) were grown at 37° C. in TSB medium or on agar plates.
(§4) 100 μL overnight culture was added to TSB or M9 agar plates and bacterial lawns were ‘created’ using Roll & Grow Plating Beads. Compound stock solution 20 μL of a 250 μM solution, 10 μL of a 10 mg/mL gentamicin solution, and 20 μL of a 250 μM DMSO control (stock=10% DMSO/H2O) was absorbed into discs and allowed to dry. Discs were placed on the plates and incubated at 37° C. for 24 hours. Assay was run in triplicate from separate overnight cultures.

[4] = test system: P. aeruginosa (PA14, PA01); assay: Zone of inhibition / growth in defined media; assay type: cell-based, Pseudomonas aeruginosa
Method: as §3, §4

[5] = test system: pyoverdine production in P. putida KT2440; details: cited from earlier work
[6] = test system: P. aeruginosa strains PAO1 and PA14; assay: Inhibitory activity against P. aeruginosa, strain not separated in text; assay type: cell-based, Pseudomonas aeruginosa; details: compared with promysalin
Method: as §1, §2
With a library of sixteen analogs in hand, all of the compounds were evaluated for inhibitory activity against P. aeruginosa strains PAO1 and PA14. […] The inhibition data supported our initial hypothesis that the conformation of promysalin is exquisitely linked to its inhibition of PA. Of our modifications to the proline structure, fluorination (9)—being the smallest steric perturbation, was the only compound with equipotency to that of promysalin.

[7] = average of EXPT 1-3, read-out: IC50 PA14 AVG
[8] = averages of three independent experiments, read-out: IC50 PA14
[9] = single trial 1, read-out: IC50 PA14 EXPT 1
[10] = single trial 2, read-out: IC50 PA14 EXPT 2
[11] = single trial 3, read-out: IC50 PA14 EXPT 3
[12] = average of EXPT 1-3, read-out: IC50 PA01 AVG
[13] = averages of three independent experiments, read-out: IC50 PA01
[14] = single trial 1, read-out: IC50 PA01 EXPT 1
[15] = single trial 2, read-out: IC50 PA01 EXPT 2
[16] = single trial 3, read-out: IC50 PA01 EXPT 3

Row | Compound | IC50 (P. aeruginosa PA14; [7]) [nM] | IC50 (P. aeruginosa PA14; [8]) [nM] | IC50 (P. aeruginosa PA14; [9]) [nM] | IC50 (P. aeruginosa PA14; [10]) [nM] | IC50 (P. aeruginosa PA14; [11]) [nM] | IC50 (P. aeruginosa PA01; [12]) [µM] | IC50 (P. aeruginosa PA01; [13]) [µM] | IC50 (P. aeruginosa PA01; [14]) [µM] | IC50 (P. aeruginosa PA01; [15]) [µM] | IC50 (P. aeruginosa PA01; [16]) [µM] | inhibitory activity against P. aeruginosa, in words (SAR) [6] | other results
1 | CCCCCC[C@H](CCCCC[C@@H](O)C(N)=O)OC(=O)[C@@H]1CC=CN1C(=O)c1ccccc1O [1 (2R,8R), promysalin] | 67 | 67 | 100 | 20 | 80 | 4.12 | 4.1 | 4.44 | 4.37 | 3.54 | – | stability under mildly acidic conditions [1]: instability; binding to PiuA (isothermal microcalorimetry) (PaPiuA): no appreciable interaction; IC50 (P. aeruginosa PA14; preliminary screening for probe design, read-out: IC50 in PA14): 63 nM; activity against PA (literature) [2]: nM concentrations; Fe^3+ chelation on CAS agar (CAS assay (CAS agar)): positive; susceptibility of Gram-positive bacteria (Gram-positive bacteria): no susceptibility; zone of inhibition ([3]; M9, succinate as sole carbon source, iron-limiting, both PP strains including producing organism): clear zone of inhibition; activity in TSB and glucose+Fe media ([3]; P. putida): not P. putida; activity in TSB and glucose+Fe media [4]: active; production of pyoverdine in P. putida KT2440 [5]: inhibits
2 | CCCCCC[C@H](CCCCC[C@@H](O)C(N)=O)OC(=O)[C@@H]1CC=CN1C(=O)c1ccccc1OC [compound 11, (1R,7R)-1-carbamoyl-1-hydroxytridecan-7-yl (2S)-1-(2-methoxybenzoyl)-2,3-dihydro-1H-pyrrole-2-carboxylate] | 6740 | 6700 | 6980 | 5860 | 7390 | 56.7 | 57 | 59.3 | 55.4 | 55.5 | an order of magnitude less potency | –
3 | CCCCCC[C@H](CCCCCCC(N)=O)OC(=O)[C@@H]1CC=CN1C(=O)c1ccccc1O [compound 18, (R)-14-amino-14-oxotetradecan-7-yl (S)-1-(2-hydroxybenzoyl)-2,3-dihydro-1H-pyrrole-2-carboxylate] | 35 | 35 | 20 | 90 | – | 5.85 | 5.8 | 4.78 | 5.64 | 7.12 | fully retained | –
4 | CCCCCC[C@H](CCCCC[C@@H](OC)C(N)=O)OC(=O)[C@@H]1CC=CN1C(=O)c1ccccc1O [compound 19, (7R,13R)-14-amino-13-methoxy-14-oxotetradecan-7-yl (S)-1-(2-hydroxybenzoyl)-2,3-dihydro-1H-pyrrole-2-carboxylate] | 11200 | 11000 | 12800 | 5720 | 15000 | 38.3 | 38 | 29.2 | 49.3 | 47.6 | decrease in potency | –
5 | CCCCCC[C@H](C/C=C/CC[C@@H](O)C(N)=O)OC(=O)[C@@H]1CC=CN1C(=O)c1ccccc1O [compound 21, (7R,13R,E)-14-amino-13-hydroxy-14-oxotetradec-9-en-7-yl (S)-1-(2-hydroxybenzoyl)-2,3-dihydro-1H-pyrrole-2-carboxylate] | 67 | 67 | 120 | 50 | 30 | 8.34 | 8.3 | 10.1 | 8.07 | 6.81 | equipotent | –
